The target of one data set is proteinase K (Parengyodontium album, UniProt P06873). In words: Proteinase K stability assay. Type of data set: in vitro ADME. Particulars: 0.5 mM peptide, 2.5 µg mL−1 proteinase K, Na2HPO4 buffer 100 mM pH 7.4 (with DMSO from stock), 25 °C, 120 min; samples at 0, 10, 20, 30, 60, 120 min; LC-MS at 280 nm. On the procedure:
Proteinase K stability assays
The assay was performed using a modified protocol.[11] A 10 mM peptide stock solution was prepared in a mixture of Na2HPO4 buffer (100 mM, pH 7.4) and DMSO (9:1). The peptide stock solution (25 µL) was diluted with more Na 2HPO4 buffer (450 µL) and thoroughly mixed.
Proteolytic digestion was started by addition of a solution of Proteinase K ( 50 µg mL−1, activity 36.9 mAnsonU mg−1) in Na2HPO4 buffer (25 µL) and incubated for 120 min at 25 °C (resulting assay concentrations 0.5 mM peptide and 2.5 µg mL−1 proteinase K). For LC-MS analysis, a 50 µL sample was diluted with 50 µL of methanol containing 0.1% TFA (v/v) and spun down at […]
Reaction monitoring via LC-MS
Figure S8: Reaction monitoring via LC-MS at λ = 280 nm. A) Linear Peptide P6, samples were taken […]
at t = 0, 10, 20, 30, 60 and 120 min. […]
fragment Ac-ENPEWILDKHVQ-OH eluting at exactly the same retention time than peptide P6 (see mass spectra below at reaction times 0 and 120 min). For fragment assignments, see mass spectra below. B) SMC stapled peptide P5, samples were taken at t = 0, 10, 20, 30, 60 and 120 min. Compared to linear […]

Test in data set [1]: not given
This is another data set of the same source.

Test in data set [2]: not given
This is another data set of the same source.

Data set [3] has as its target T1, β-catenin (Homo sapiens, UniProt P35222).
T1 construct: expression and purification of full-length β-catenin; His tag with TEV site (inferred from the pET28a-TEV vector name and Ni-NTA purification); host or cells: E. coli BL21(DE3)
T1 sequence (P35222 1-781): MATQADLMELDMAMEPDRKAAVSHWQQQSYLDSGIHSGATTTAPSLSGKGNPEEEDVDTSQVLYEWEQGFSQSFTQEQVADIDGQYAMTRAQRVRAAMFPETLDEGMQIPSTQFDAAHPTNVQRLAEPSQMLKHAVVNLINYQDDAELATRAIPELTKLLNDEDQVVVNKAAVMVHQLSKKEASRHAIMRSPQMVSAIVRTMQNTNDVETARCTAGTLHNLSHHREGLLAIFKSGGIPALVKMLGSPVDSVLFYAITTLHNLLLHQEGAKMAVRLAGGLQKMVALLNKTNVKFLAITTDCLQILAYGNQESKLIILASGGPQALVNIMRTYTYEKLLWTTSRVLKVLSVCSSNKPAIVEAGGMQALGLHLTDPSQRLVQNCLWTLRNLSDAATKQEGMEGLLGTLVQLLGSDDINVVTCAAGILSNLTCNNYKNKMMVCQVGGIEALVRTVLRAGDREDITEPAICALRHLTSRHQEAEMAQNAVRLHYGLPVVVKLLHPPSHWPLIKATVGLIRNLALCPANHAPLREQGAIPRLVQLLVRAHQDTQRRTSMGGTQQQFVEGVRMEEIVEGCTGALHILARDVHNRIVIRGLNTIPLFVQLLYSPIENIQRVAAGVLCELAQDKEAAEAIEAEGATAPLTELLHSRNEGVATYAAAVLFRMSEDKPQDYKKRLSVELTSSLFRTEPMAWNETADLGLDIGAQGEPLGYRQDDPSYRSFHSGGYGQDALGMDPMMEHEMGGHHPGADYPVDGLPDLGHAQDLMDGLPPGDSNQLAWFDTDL
In words: Competitive fluorescence polarisation assay. The class given is binding. The following applies: unlabelled peptide titrated against tracer peptide fStAx-3 (10 nM final), β-catenin 3 µM final; FP buffer 1× PBS with 0.05% Tween20, pH 7.4; 4 °C, 1 h; biological duplicate and technical triplicate. On the procedure:
Figure S6: Direct titration curve of fluorescence polarisation assay of FITC-labelled AxWt (fAxWt) and FITC-labelled RCM-stapled peptide StAx-3 (fStAx-3). Dissociation constants were determined to be Kd […]
competitive fluorescence polarisation assay (see below).
Competitive fluorescence polarisation assay
A stock solution of the FITC-labelled peptide in DMSO (20 µM) was diluted to 40 nM in FP buffer (1× PBS with 0.05% Tween20, pH 7.4). A β-Catenin stock solution with a concentration of 6 µM was prepared in FP buffer. Stock solutions of non-labelled peptides (1 mM) in DMSO were serially diluted (2.5-fold) in FP buffer. […]
Fluorescence polarisation was measured using a Tecan Spark 10M with λex = 485/20 nm and […]. Each sample was measured as biological duplicate and technical triplicate. […]
The equation used for Kd determination of unlabeled peptides is shown below with r as anisotropy, r0 as anisotropy of the free peptide, rb as anisotropy of the β-Catenin:FITC-labelled tracer peptide, Kd2 as dissociation constant between the non-labelled ligand and the protein, [L]t as total non-labelled ligand concentration and [L]st as total FITC-labelled peptide concentration. Kd1 is the apparent Kd that was determined in direct fluorescence polari sation assays for the labelled-tracer peptide. […]
fluorescence polarisation assay). […]
On the technique in general: Polarisation of emitted light reports the rotation of a fluorescent probe.

Data set [4] is described as follows: CD spectroscopy, calculated content of α-helix. Type of data set: physicochemical. The following applies: c = 100 µM in water, 20 °C, from MRE at 222 nm. On the procedure:
Figure 1 Analysis of the secondary structure by circular dichroism: CD spectra of both isomers of stapled peptide P5 (P5.1 and P5.2) and linear references (aAxWt, P6) (c = 100 µM) at 20 °C in water.
Table S1: Calculated contents of α-helix.
Peptide θ222 [mdeg] [θ]222 [deg cm2 dmol-1] a) MRE [deg cm2 dmol-1] b) α-Helix content [%]
a) [θ] = θ / (c * 10 * l) with c = 10-4 mol/L, l = 0.1 cm; b) MRE = [θ] / n; c) in brackets literature values for
FITC-labelled analogues, ref: Grossmann, T. N.; Yeh, J. T.-H.; Bowman, B. R.; Chu, Q.; Moellering, R.
For TFE titration experiments, peptide solutions in a mixture of TFE/H2O 4:1 were additionally
Reference peptides (linear and RCM stapled peptides)
Figure S2: CD spectra of reference peptides P6, aAxWt and aStAx-3, c = 100 µM in H2O. […]

Data set [5] addresses T2, β-catenin (Homo sapiens, UniProt P35222).
T2 chain: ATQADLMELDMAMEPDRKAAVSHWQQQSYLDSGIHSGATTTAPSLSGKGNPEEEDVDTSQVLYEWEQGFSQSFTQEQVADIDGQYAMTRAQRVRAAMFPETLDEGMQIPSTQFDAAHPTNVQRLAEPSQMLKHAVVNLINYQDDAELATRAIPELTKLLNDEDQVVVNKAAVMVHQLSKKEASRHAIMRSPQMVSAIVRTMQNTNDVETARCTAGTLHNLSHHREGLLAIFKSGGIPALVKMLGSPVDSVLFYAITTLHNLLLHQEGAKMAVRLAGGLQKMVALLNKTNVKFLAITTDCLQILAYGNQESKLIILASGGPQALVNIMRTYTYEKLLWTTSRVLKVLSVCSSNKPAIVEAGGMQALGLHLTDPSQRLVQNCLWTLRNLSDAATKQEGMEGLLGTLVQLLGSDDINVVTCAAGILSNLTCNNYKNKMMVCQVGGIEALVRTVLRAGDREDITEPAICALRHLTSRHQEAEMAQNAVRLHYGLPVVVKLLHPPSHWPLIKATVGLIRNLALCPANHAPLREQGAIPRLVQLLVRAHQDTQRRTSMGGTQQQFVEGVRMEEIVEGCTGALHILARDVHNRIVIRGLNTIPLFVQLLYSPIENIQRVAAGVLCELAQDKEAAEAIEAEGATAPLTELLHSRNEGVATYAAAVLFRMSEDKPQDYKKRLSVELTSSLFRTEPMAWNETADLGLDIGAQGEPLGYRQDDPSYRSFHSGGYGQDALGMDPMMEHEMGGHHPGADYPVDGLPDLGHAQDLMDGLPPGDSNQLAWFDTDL
As to the kind of experiment: direct fluorescence polarisation.

Data set [6] deals with T2, β-catenin. In words: competitive fluorescence polarisation.

We go through five molecules from publication PMC8744458 (Beilstein Journal of Organic Chemistry, 2022).

Several values for one entry are separate records, joined by “and”; a condition that tells them apart may be missing. Equal entries are not always repeated. Entries after “also recorded” stand apart in the source; their conditions may differ. Positions of bridges follow the written chain, without caps; N, C: chain ends. Non-standard residues stand in square brackets, D forms with d. Residues, ends and D or L forms follow the SMILES beside them. No end group written: not given here. *: point of attachment. FITC = O=C1OC2(c3ccc(O)cc3Oc3cc(O)ccc32)c2ccc(NC(=S)*)cc21; S5 = C=CCCC[C@](C)(N)C(=O)O

Chain of proteinase K (P06873 106-384, species assumed): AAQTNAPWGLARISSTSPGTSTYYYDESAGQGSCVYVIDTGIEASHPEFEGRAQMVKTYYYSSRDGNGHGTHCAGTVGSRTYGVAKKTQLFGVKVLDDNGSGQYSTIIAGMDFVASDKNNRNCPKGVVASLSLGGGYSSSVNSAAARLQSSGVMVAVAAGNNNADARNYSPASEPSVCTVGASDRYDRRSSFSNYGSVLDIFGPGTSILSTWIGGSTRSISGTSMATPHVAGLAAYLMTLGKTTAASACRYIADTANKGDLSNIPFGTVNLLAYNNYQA

On to `CC[C@H](C)[C@@H]1NC(=O)[C@@H](NC(=O)[C@H](CCC(=O)O)NC(=O)[C@@H]2CCCN2C(=O)[C@H](CC(N)=O)NC(=O)[C@H](CCC(=O)O)NC(C)=O)Cc2c[nH]c3c(cccc23)-c2ccc(cc2)CCC(=O)NCCCC[C@@H](C(=O)N[C@@H](Cc2c[nH]cn2)C(=O)N[C@H](C(=O)N[C@@H](CCC(N)=O)C(=O)N[C@@H](CCCNC(=N)N)C(=O)N[C@H](C(=O)N[C@@H](CCSC)C(N)=O)C(C)C)C(C)C)NC(=O)[C@H](CC(=O)O)NC(=O)[C@H](CC(C)C)NC1=O` [P5], for which the θ222 is -7.04 mdeg and -10 mdeg. Besides, on proteinase K, the “Stability against proteinase K digestion (cleavage sites/fragments)” value is listed as “two of three cleaving sites are blocked; also recorded: allows access to only one of the three cleavage sites; also recorded: higher stability”. Also, the MRE (deg cm2 dmol-1) in data set [1] was -4690 and -6680. The [θ]222 (deg cm2 dmol-1) in data set [2] is -70400 and -100000.

Take `CC[C@H](C)[C@@H]1NC(=O)[C@@](C)(NC(=O)[C@H](CCC(=O)O)NC(=O)[C@@H]2CCCN2C(=O)[C@H](CC(N)=O)NC(=O)[C@H](CCC(=O)O)NC(C)=O)CCCC=CCCC[C@@](C)(C(=O)N[C@@H](Cc2c[nH]cn2)C(=O)N[C@H](C(=O)N[C@@H](CCC(N)=O)C(=O)N[C@@H](CCCNC(=N)N)C(=O)N[C@H](C(=O)N[C@@H](CCSC)C(N)=O)C(C)C)C(C)C)NC(=O)[C@H](CC(=O)O)NC(=O)[C@H](CC(C)C)NC1=O` [aStAx-3, reference compound] (Ac-ENPE[S5]ILD[S5]HVQRVM-NH2; staple 5-9): the θ222 is -16.2 mdeg. Moreover, at β-catenin [3], the Kd (usually the equilibrium constant for the complex coming apart) stood at 49 ± 26 nM. This molecule also gave an MRE (deg cm2 dmol-1) in data set [1] of -10800. Moreover, in data set [2], the [θ]222 (deg cm2 dmol-1) was -162000.

The molecule Ac-ENPEWILDKHVQRVM-NH2 [P6] yielded a θ222 of -5.94 mdeg. The “Stability against proteinase K digestion (cleavage sites/fragments)” value at proteinase K was “degraded in three fragments; also recorded: cleaved within a period of 120 min to give three fragments”. Besides, the dissociation constant Kd on β-catenin [3] worked out at 1240 ± 162 nM. For the same molecule, the “α-Helix content calculated from CD spectra” value in data set [4] is 13%. In data set [1], this molecule displayed an MRE (deg cm2 dmol-1) of -3960. The molecule also returned a [θ]222 (deg cm2 dmol-1) in data set [2] of -59400.

B1: fStAx-3 (FITC-labelled RCM-stapled axin CBD peptide) 467-481 (peptide)
chain: {FITC}-PESILDEHVQRVLRT
modifications: staple (positions not given here); not fully specified (residues 5, 9, bridges); also: all-hydrocarbon staple at 471/475 (positions 5, 9), stapling residues not named
In the data set with β-catenin [5], B1 returned a Kd of 63 nM.

For the molecule PESILDEHVQRVLRT [aAxWt (axin CBD peptide) 467-481], the Kd with β-catenin [6] was found to be 1450 nM. This lies in the single-digit micromolar range.
